Legend:
[1] = Fluorescence lifetime glucose responsive assay (10 mM PBS, pH 7.4, 298 K); settings: FIM 5 uM, Ex 450 nm
[2] = Fluorescent solution phase glucose responsive assay (pH 7.4, 298 K)
Protocol: Fluorescence spectroscopy was performed on either a HORIBA Duetta or BMG Labtech CLARIOstar plus plate reader. Emission spectra were obtained using the appropriate excitation wavelength and at a temperature of either 298 or 310 K and at pH 7.4 unless otherwise stated. Data collection and analysis were performed using EzSpec software by HORIBA or CLARIOstar MARS software by BMG Labtech. Further analysis and processing were performed in Microsoft Excel.
A solution of GBM and FIM at the required concentrations were created in the appropriate media. The emission spectrum of the assay was then acquired by exciting at the designated excitation wavelength to obtain the baseline emission intensity for the assay. Aliquots of 2 M D-glucose (in the same media) were then added to give the required final glucose concentrations (e.g. 15 μL of 2 M D-glucose in 3 mL gives a final D-glucose concentration of 10 mM) and the assay allowed to reach equilibration. The emission spectra were collected after each addition of D-glucose and compared to the original baseline emission, monitoring at the typical emission maximum (Emmax), and the percentage increase or decrease recorded. Emission spectra acquired on either a Horiba Duetta fluorometer or Clariostar plus plate reader.
The glucose responsive fluorescence emission for different combinations of glucose binding molecules (GBM) and fluorescent inhibitor molecules (FIM) at various concentrations and in various media was tested as described above. All results obtained at pH 7.4 and 298 K unless otherwise stated.
All results obtained at pH 7.4 and 298 K unless otherwise stated.
Table 4 provides the composition of the assay media used as the code assigned to each media as used in Tables 1 to 3.

[3] = Fluorescent hydrogel phase glucose responsive assay (10 mM PBS, pH 7.4, 310 K); settings: 20 mM D-glucose, Ex 480/Emmax 520 nm
[4] = 5 mM D-glucose, GBM15 50 uM, FIM 5 uM, Ex 470/Emmax 520 nm, medium B (10 mM PBS)
[5] = 10 mM D-glucose, GBM15 50 uM, FIM 5 uM, Ex 470/Emmax 520 nm, medium B (10 mM PBS)
[6] = 20 mM D-glucose, GBM15 50 uM, FIM 5 uM, Ex 470/Emmax 520 nm, medium B (10 mM PBS)
[7] = GBM30 100 uM, FIM 10 uM, hydrogel H (amino azide dextran/PEG)

CC(C)(C)OC(=O)NC(Cc1cn(CCCCC(C(=O)NCC(COC2OC(CO)C(O)C(O)C2O)c2ccccc2)[N+](C)(C)C)nn1)C(=O)NCCOCCOCCn1cc(-c2ccnc(-c3cc(-c4cn(CCOCCOc5cc(S(=O)(=O)[O-])c6ccc7c(S(=O)(=O)[O-])cc(S(=O)(=O)[O-])c8ccc5c6c87)nn4)ccn3)c2)nn1.[Ru+2].c1ccc(-c2ccccn2)nc1.c1ccc(-c2ccccn2)nc1 (centres unmarked) [FIM56]
Fluorescence lifetime component τ1 for FIM and GBM at a particular glucose concentration ([1]; 5 mM glucose, GBM15 20 uM): 695 ns | Fluorescence lifetime component τ2 for FIM and GBM at a particular glucose concentration ([1]; 5 mM glucose, GBM15 20 uM): 3040 ns | Fluorescence lifetime component τ1 for FIM and GBM at a particular glucose concentration ([1]; 20 mM glucose, GBM15 20 uM): 660 ns | Fluorescence lifetime component τ2 for FIM and GBM at a particular glucose concentration ([1]; 20 mM glucose, GBM15 20 uM): 3210 ns | Fluorescence lifetime component τ1 for FIM and GBM at a particular glucose concentration ([1]; 40 mM glucose, GBM15 20 uM): 625 ns | Fluorescence lifetime component τ2 for FIM and GBM at a particular glucose concentration ([1]; 40 mM glucose, GBM15 20 uM): 3260 ns | Lifetime component τ1 of FIM only [1]: 520 ns | Lifetime component τ2 of FIM only [1]: 3620 ns | Lifetime component τ1 of FIM after GBM addition ([1]; GBM15 20 uM): 650 ns | Lifetime component τ2 of FIM after GBM addition ([1]; GBM15 20 uM): 2500 ns

C[N+](C)(C)[C@@H](CCCCn1cc(C[C@H](NC(=O)OC[C@@H]2[C@@H]3CCC#CCC[C@@H]32)C(=O)NCCOCCOCCn2cc(CNC(=O)c3ccc4c(c3)C(=O)OC43c4ccc(N)c(S(=O)(=O)[O-])c4Oc4c3ccc(N)c4S(=O)(=O)O)nn2)nn1)C(=O)NCC(CO[C@@H]1O[C@H](CO)[C@@H](O)[C@H](O)[C@H]1O)c1ccccc1 (some centres unmarked) [FIM60]
Change in Emmax for FIM at a particular D-glucose concentration ([2]; 5 mM D-glucose, GBM7 50 uM, FIM 5 uM, Ex 470/Emmax 520 nm, medium B (10 mM PBS)): 220% | Change in Emmax for FIM at a particular D-glucose concentration [2, 4]: 80% | Change in Emmax for FIM at a particular D-glucose concentration ([2]; 5 mM D-glucose, GBM30 50 uM, FIM 1 uM, Ex 470/Emmax 520 nm, medium B (10 mM PBS)): 120% | Change in Emmax for FIM at a particular D-glucose concentration ([2]; 5 mM D-glucose, GBM40 20 uM, FIM 5 uM, Ex 470/Emmax 520 nm, medium B (10 mM PBS)): 250% | Change in Emmax for FIM at a particular D-glucose concentration ([2]; 5 mM D-glucose, GBM40 20 uM, FIM 5 uM, Ex 470/Emmax 520 nm, medium C (human serum)): 250% | Change in Emmax for FIM at a particular D-glucose concentration ([2]; 5 mM D-glucose, GBM43 40 uM, FIM 5 uM, Ex 450/Emmax 520 nm, medium B (10 mM PBS)): 80% | Change in Emmax for FIM at a particular D-glucose concentration [2, 5]: 130% | Change in Emmax for FIM at a particular D-glucose concentration ([2]; 10 mM D-glucose, GBM30 50 uM, FIM 1 uM, Ex 470/Emmax 520 nm, medium B (10 mM PBS)): 170% | Change in Emmax for FIM at a particular D-glucose concentration ([2]; 10 mM D-glucose, GBM43 40 uM, FIM 5 uM, Ex 450/Emmax 520 nm, medium B (10 mM PBS)): 125% | Change in Emmax for FIM at a particular D-glucose concentration ([2]; 20 mM D-glucose, GBM7 50 uM, FIM 5 uM, Ex 470/Emmax 520 nm, medium B (10 mM PBS)): 310% | Change in Emmax for FIM at a particular D-glucose concentration [2, 6]: 200% | Change in Emmax for FIM at a particular D-glucose concentration ([2]; 20 mM D-glucose, GBM30 50 uM, FIM 1 uM, Ex 470/Emmax 520 nm, medium B (10 mM PBS)): 200% | Change in Emmax for FIM at a particular D-glucose concentration ([2]; 20 mM D-glucose, GBM40 20 uM, FIM 5 uM, Ex 470/Emmax 520 nm, medium B (10 mM PBS)): 450% | Change in Emmax for FIM at a particular D-glucose concentration ([2]; 20 mM D-glucose, GBM40 20 uM, FIM 5 uM, Ex 470/Emmax 520 nm, medium C (human serum)): 430% | Change in Emmax for FIM at a particular D-glucose concentration ([2]; 20 mM D-glucose, GBM43 40 uM, FIM 5 uM, Ex 450/Emmax 520 nm, medium B (10 mM PBS)): 165% | Change in Emmax for FIM at a particular D-glucose concentration ([2]; 40 mM D-glucose, GBM7 50 uM, FIM 5 uM, Ex 470/Emmax 520 nm, medium B (10 mM PBS)): 400% | Change in Emmax for FIM at a particular D-glucose concentration ([2]; 40 mM D-glucose, GBM15 50 uM, FIM 5 uM, Ex 470/Emmax 520 nm, medium B (10 mM PBS)): 220% | Change in Emmax for FIM at a particular D-glucose concentration ([2]; 40 mM D-glucose, GBM30 50 uM, FIM 1 uM, Ex 470/Emmax 520 nm, medium B (10 mM PBS)): 220% | Change in Emmax for FIM at a particular D-glucose concentration ([2]; 40 mM D-glucose, GBM43 40 uM, FIM 5 uM, Ex 450/Emmax 520 nm, medium B (10 mM PBS)): 200% | Change in Emmax for FIM at a particular D-glucose concentration ([2]; 80 mM D-glucose, GBM40 20 uM, FIM 5 uM, Ex 470/Emmax 520 nm, medium B (10 mM PBS)): 600% | Change in Emmax for FIM at a particular D-glucose concentration ([2]; 80 mM D-glucose, GBM40 20 uM, FIM 5 uM, Ex 470/Emmax 520 nm, medium C (human serum)): 500% | Change in Emmax for FIM at a particular D-glucose concentration ([2]; 80 mM D-glucose, GBM43 40 uM, FIM 5 uM, Ex 450/Emmax 520 nm, medium B (10 mM PBS)): 230% | Change in Emmax for FIM at a particular D-glucose concentration ([3]; GBM15 50 uM, FIM 50 uM, hydrogel G (amino dextran/PEG/PEG3-azide)): 50% | Change in Emmax for FIM at a particular D-glucose concentration [3, 7]: 40%

C#CCCC(=O)N[C@@H](CCCCNC(=O)Cn1cc(CNC(=O)c2ccc3c(c2)C(=O)OC32c3ccc(O)cc3Oc3cc(O)ccc32)nn1)C(=O)NCCOCCOCCOCCOCc1cn(CCO[C@@H]2O[C@H](CO)[C@@H](O)[C@H](O)[C@H]2O)nn1 [FIM66]
Change in Emmax for FIM at a particular D-glucose concentration [2, 4]: 250% | Change in Emmax for FIM at a particular D-glucose concentration [2, 5]: 255% | Change in Emmax for FIM at a particular D-glucose concentration [2, 6]: 260% | Change in Emmax for FIM at a particular D-glucose concentration [3, 7]: 140%

— patent publication US20250172566A1, “SACCHARIDE SENSING SYSTEMS” (CARBOMETRICS LIMITED, priority 2022, published 2025)
